Assay [1] relates to C. neoformans 1841 (serotype D). The settings on record: for activity of Cf-labeled peptide relative to the corresponding unlabeled peptide: C. neoformans 1841; for MIC (μmol/L) 1841 24 h: 1841 (serotype D, 24 h, pH 7.5); for MIC (μmol/L) 1841 48 h: 1841 (serotype D, 48 h, pH 7.5).
In assay [2] the test system is C. neoformans KN99α (serotype A, mating type MATα). The settings on record: for MIC (μmol/L) KN99α 24 h: KN99α (serotype A, mating type MATα, 24 h); for MIC (μmol/L) KN99α 48 h: KN99α (serotype A, mating type MATα, 48 h).
For assay [3], the system named is C. neoformans H99 (serotype A). The note with it: for MIC (μmol/L) H99 24 h: H99 (serotype A, 24 h).

Values after ≈ are worked out from the molar mass of the structure shown. Where two headings read alike, the source gives them in different places. Starred links: 1 amine or outer side, 2 acyl side, 3 side chain; linkers in the order of their positions; H or OH if unused. Non-standard residues stand in square brackets, D forms with d. Residues, ends and D or L forms follow the SMILES beside them. *: point of attachment. 5FAM = O=C1OC2(c3ccc(O)cc3Oc3cc(O)ccc32)c2ccc(C(=O)*)cc21; δOrn(α-TMG) = CN(C)C(=N[C@@H](CCCN[*:1])C(=O)[*:2])N(C)C; Ac6c = NC1(C(=O)O)CCCCC1; Orn = NCCC[C@H](N)C(=O)O

Turning to `CC(C)C[C@H](NC(=O)[C@H](Cc1ccc(O)cc1)NC(=O)[C@@H]1CCCN1C(=O)[C@H](CCCNC(=N)N)NC(=O)[C@@H]1CCCN1C(=O)[C@H](CCCCN)NC(=O)[C@H](CC(=O)O)NC(=O)[C@@H]1CCCN1C(=O)[C@H](CCCNC(=N)N)NC(=O)C1(NC(=O)c2ccc3c(c2)C(=O)OC32c3ccc(O)cc3Oc3cc(O)ccc32)CCCCC1)C(=O)N1CCC[C@H]1C(=O)N[C@@H](CCCNC(=N)N)C(=O)N1CCC[C@H]1C(=O)N[C@@H](CCCNC(=N)N)C(=O)N1CCC[C@H]1C(=O)N1CCC[C@H]1C(=O)N[C@@H](CCCNC(=N)N)C(=O)N1CCC[C@H]1C(=O)N[C@H](C(=O)N[C@@H](CCCNC(=N)N)C(N)=O)C(C)C` [Cf-Chex1Arg20] (5FAM-[Ac6c]RPDKPRPYLPRPRPPRPVR-NH2), the “MIC (after 48 h)” value in assay [1] (1841 (serotype D, 48 h)) is 3.2 µM (≈ 9.07 µg/mL). Besides, the “activity of Cf-labeled peptide relative to the corresponding unlabeled peptide” value in assay [1] was “slightly more active”. Also, the “MIC (mg/L) 24 h, Cf-labeled peptides” value in assay [1] (C. neoformans 1841, read after 24 h, mean of three replicates (n = 3)) was determined as 4 mg/L (≈ 1.41 µM). The “MIC (mg/L) 48 h, Cf-labeled peptides” value in assay [1] (C. neoformans 1841, read after 48 h, mean of three replicates (n = 3)) was 4 mg/L (≈ 1.41 µM).
On to `CC[C@H](C)[C@H](NC(=O)[C@H](CCCNC(=N)N)NC(=O)[C@H](CC(C)C)NC(=O)[C@@H]1CCCN1C(=O)CN)C(=O)N[C@@H](Cc1ccc(O)cc1)C(=O)N[C@H](C(=O)N1CCC[C@H]1C(=O)N[C@@H](Cc1c[nH]cn1)C(=O)N1CCC[C@H]1C(=O)N1CCC[C@H]1C(=O)N1CCC[C@H]1C(=O)N[C@@H](CCCNC(=N)N)C(=O)N1CCC[C@H]1C(=O)N[C@@H](CC(N)=O)C(=O)N[C@@H](CCC(N)=O)C(=O)N[C@@H](CC(N)=O)C(=O)N[C@@H](CCCNC(=N)N)C(=O)O)C(C)C` [Apidaecin 1b scr] (H-GPLRIYVPHPPPRPNQNR-OH), for which, in assay [2], the “MIC (μmol/L) KN99α 24 h” value was more than 61 µmol/L and the “MIC (μmol/L) KN99α 48 h” value is more than 61 µmol/L. Further, the “MIC (μmol/L) H99 24 h” value in assay [3] is more than 61 µmol/L. Besides, the “MIC (μmol/L) H99 48 h” value in assay [3] (H99 (serotype A, 48 h)) was more than 61 µmol/L. Also, in assay [1], the “MIC (μmol/L) 1841 24 h” value was more than 61 µmol/L and the “MIC (μmol/L) 1841 48 h” value is more than 61 µmol/L.
Turning to `CC[C@H](C)[C@H](NC(=O)[C@H](Cc1ccc(O)cc1)NC(=O)[C@@H](NC(=O)[C@@H]1CCCN1C(=O)[C@H](CCCNC(=N)N)NC(=O)[C@H](CC(N)=O)NC(=O)[C@H](CC(N)=O)NC(=O)[C@H](CCCNC(=O)c1ccc2c(c1)C(=O)OC21c2ccc(O)cc2Oc2cc(O)ccc21)N=C(N(C)C)N(C)C)C(C)C)C(=O)N1CCC[C@H]1C(=O)N[C@@H](CCCNC(=N)N)C(=O)N1CCC[C@H]1C(=O)N[C@@H](CCCNC(=N)N)C(=O)N1CCC[C@H]1C(=O)N1CCC[C@H]1C(=O)N[C@@H](Cc1c[nH]cn1)C(=O)N1CCC[C@H]1C(=O)N[C@@H](CCCNC(=N)N)C(=O)N[C@@H](CC(C)C)C(N)=O` [Cf-Api88] (5FAM-[δOrn(α-TMG)]NNRPVYIPRPRPPHPRL-NH2), in assay [1] (1841 (serotype D, 24 h)), the “MIC (mg/L) 24 h, Cf-labeled peptides” value was 32 mg/L (≈ 12.1 µM). In assay [1] (1841 (serotype D, 48 h)), the “MIC (after 48 h)” value came out at 7.0 µM (≈ 18.5 µg/mL) and the “MIC (mg/L) 48 h, Cf-labeled peptides” value lay in the range of 32 to 64 mg/L. Moreover, in assay [1], the “activity of Cf-labeled peptide relative to the corresponding unlabeled peptide” value was “slightly less active”.
As for `CC[C@H](C)[C@H](NC(=O)[C@H](Cc1ccc(O)cc1)NC(=O)[C@H](CC(N)=O)NC(=O)[C@@H](N)CCCN)C(=O)N[C@@H](CCCN)C(=O)N[C@@H](CCCNC(=N)N)C(=O)N1CCC[C@H]1C(=O)N1CCC[C@H]1C(=O)N[C@@H](CCCNC(=N)N)C(=O)N1CCC[C@H]1C(=O)N[C@@H](CCCNC(=N)N)C(=O)N1CCC[C@H]1C(=O)N[C@@H](CC(C)C)C(=O)N[C@@H](Cc1ccc(O)cc1)C(=O)N1CCC[C@H]1C(=O)N1CCC[C@H]1C(=O)N[C@@H](CCCCN)C(=O)N[C@@H](CC(=O)O)C(=O)N[C@H](C(N)=O)C(C)C` [Onc72 rev] (H-[Orn]NYI[Orn]RPPRPRPLYPPKDV-NH2), in assay [2], the “MIC (μmol/L) KN99α 24 h” value came out at 28 µmol/L (≈ 64.6 µg/mL) and the “MIC (μmol/L) KN99α 48 h” value was determined as 56 µmol/L (≈ 129 µg/mL). Moreover, in assay [3], the “MIC (μmol/L) H99 24 h” value came out at 28 µmol/L (≈ 64.6 µg/mL). Also, the “MIC (μmol/L) H99 48 h” value in assay [3] (H99 (serotype A, 48 h)) came out at 56 µmol/L (≈ 129 µg/mL). In assay [1], the “MIC (μmol/L) 1841 24 h” value turned out to be 28 µmol/L (≈ 64.6 µg/mL) and the “MIC (μmol/L) 1841 48 h” value worked out at 56 µmol/L (≈ 129 µg/mL).
Regarding `CC(C)C[C@H](NC(=O)[C@@H]1CCCN1C(=O)[C@H](CCCNC(=N)N)NC(=O)[C@@H]1CCCN1C(=O)[C@H](CCCNC(=N)N)NC(=O)[C@@H]1CCCN1C(=O)[C@@H]1CCCN1C(=O)[C@H](CCCNC(=N)N)NC(=O)[C@@H]1CCCN1C(=O)[C@@H](NC(=O)[C@@H](N)CCCNC(=N)N)C(C)C)C(=O)N[C@@H](Cc1ccc(O)cc1)C(=O)N1CCC[C@H]1C(=O)N[C@@H](CCCNC(=N)N)C(=O)N1CCC[C@H]1C(=O)N[C@@H](CCCCN)C(=O)N[C@@H](CC(=O)O)C(=O)N1CCC[C@H]1C(=O)N[C@@H](CCCNC(=N)N)C(=O)NC1(C(N)=O)CCCCC1` [Chex1Arg20 rev] (H-RVPRPPRPRPLYPRPKDPR[Ac6c]-NH2; N-terminus assumed), in assay [2], the “MIC (μmol/L) KN99α 24 h” value was 3.2 µmol/L (≈ 7.92 µg/mL) and the “MIC (μmol/L) KN99α 48 h” value came out at 6.5 µmol/L (≈ 16.1 µg/mL). For the same molecule, the “MIC (μmol/L) H99 24 h” value in assay [3] came to 3.2 µmol/L (≈ 7.92 µg/mL). For the same molecule, in assay [3] (H99 (serotype A, 48 h)), the “MIC (mg/L) H99 48 h” value was in the range of 8 to 16 mg/L and the “MIC (μmol/L) H99 48 h” value is 3.2 to 6.5 µmol/L. Moreover, in assay [1], the “MIC (μmol/L) 1841 24 h” value was 3.2 µmol/L (≈ 7.92 µg/mL) and the “MIC (μmol/L) 1841 48 h” value turned out to be 3.2 µmol/L (≈ 7.92 µg/mL).

The values are drawn from PMC10800876, “Evaluation of proline-rich antimicrobial peptides as potential lead structures for novel antimycotics against Cryptococcus neoformans” (Frontiers in Microbiology, 2024).
